Source: US20090203644A1, “Compositions for treating and/or preventing diseases characterized by the presence of metal ions” (GrenPharma LLC, priority 2004, published 2009)
“Also recorded” adds a separate entry of the source. Counter-ions that a name gives are not always drawn. Like-named read-outs stand apart in the source and are kept apart here.

Tests used:
Caco-2 cells [1] = settings: Caco-2
NF-M17 = biological target: T1, NF-M17 (Homo sapiens, UniProt P07197); assay: CD titration: restoration of the CD spectrum of NF-M17 exposed to aluminum; assay type: biochemical
T1 construct: a seventeen amino acid region of the human neurofilament mid-sized subunit protein, NF-M17; host or cells: chemical synthesis

A-beta peptide = test system: A-beta peptide; design: species or system human
A-beta peptide fragment = A-beta peptide fragment (Homo sapiens, UniProt P05067); assay: CD helix-coil reversal and pretreatment experiments (Example 11); assay type: biochemical
A-beta peptide fragment, sequence (P05067 672-713): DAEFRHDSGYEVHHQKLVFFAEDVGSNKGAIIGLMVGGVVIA

A-beta1-42 peptide [2] = biological target: T2, A-beta1-42 peptide (Homo sapiens, UniProt P05067); assay: CD: reversal of the aluminum effect on the A-beta1-42 peptide spectrum (Example 3); assay type: biochemical
T2 sequence (P05067 672-713): as above

[3] = biological target: peptide 1 (A-beta1-42 peptide) (Homo sapiens, UniProt P05067); assay type: biochemical
peptide 1 (A-beta1-42 peptide), sequence (P05067 672-713): as above

A-beta antigen = test system: A-beta antigen; design: species or system human
Caco-2 cells [4] = test system: Caco-2 cells
A-beta1-42 peptide [5] = biological target: T2, A-beta1-42 peptide; assay type: biochemical

Compound: C[Si](Cl)(Cl)CC[Si](C)(Cl)Cl [1,2-(methyldichlorosilyl)ethane]
- permeation across Caco-2 cells compared with mannitol (Caco-2 cells [1]): at least four times greater

Compound: NCCC[Si](O)(O)O [APST, 3-aminopropylsilantriol]
- Restore original spectra? (NF-M17): Yes
- chelation of aluminum compared to sodium orthosilicate (NF-M17): improved chelation of aluminum

Compound: CC[Si](O)(CC)Cc1ccccc1 [BDS, benzyldiethylsilanol]
- Restore original spectra? (NF-M17): did not restore and No

Compound: CCC(C#N)C[Si](C)(Cl)Cl (centres unmarked) [CBMS, 2-cyanobutylmethyldichlorosilane]
- total extracted (A-beta peptide): 3.6 fmol
- Total Permeation Coefficient (cm/sec) Mean ± SD, where applicable, MDCK (MDCK cells; dog): 1.5e-06 cm/s
- recovery of helicity in Al-denatured peptide / reversal of aluminum-induced denaturation (CD) (A-beta peptide fragment): appeared to reverse aluminum-induced denaturation
- Permeation Coefficient (cm/sec) Mean ± SD, where applicable (Caco-2 cells [1]; human): 6.5e-06 cm/s
- Total Permeation Coefficient (cm/sec) Mean ± SD, where applicable, Caco-2 (Caco-2 cells [1]; human): 6.5e-06 cm/s

Compound: CC(C#N)C[Si](C)(Cl)Cl (centres unmarked) [CPMS, 2-cyanopropylmethyldichlorosilane]
- total extracted (A-beta peptide): 5.3 fmol
- Total Permeation Coefficient (cm/sec) Mean ± SD, where applicable, MDCK (MDCK cells; dog): 1.2e-06 cm/s
- recovery of helicity in Al-denatured peptide / reversal of aluminum-induced denaturation (CD) (A-beta peptide fragment): appeared to reverse aluminum-induced denaturation
- permeation across Caco-2 cells compared with mannitol (Caco-2 cells [1]): approximately three times more efficiently
- Permeation Coefficient (cm/sec) Mean ± SD, where applicable (Caco-2 cells [1]; human): 6.1 ± 1.7 × 10^−6 cm/sec
- Total Permeation Coefficient (cm/sec) Mean ± SD, where applicable, Caco-2 (Caco-2 cells [1]; human): 6.1 ± 1.7 × 10^−6 cm/sec

Compound: N#CCCC[Si](Cl)(Cl)Cl [CPTCS, 3-cyanopropyltrichlorosilane]
- restoration of the original CD spectrum of the peptide after exposure to aluminum (A-beta1-42 peptide [2]): able to restore the CD spectrum
- reversal of the effects of aluminum on the CD spectrum of the peptide (A-beta1-42 peptide [2]): Moderate reversal; also recorded: almost full reversal
- Restore original spectra? (NF-M17): Yes
- equivalents at which the CD spectrum of NF-M17/aluminum is restored to (similar to) its original shape (NF-M17): around 32 equivalents

Compound: CC[Si](Cl)(Cl)CC [DCDES, dichlorodiethylsilane]
- restoration of the original CD spectrum of the peptide after exposure to aluminum (A-beta1-42 peptide [2]): at least partially restored
- Restore original spectra? (NF-M17): Yes
- equivalents at which the CD spectrum of NF-M17/aluminum is restored to (similar to) its original shape (NF-M17): around 32 equivalents

Compound: CC(C)[Si](Cl)(Cl)C(C)C [DCDIPS, dichlorodiisopropylsilane]
- restoration of the original CD spectrum of the peptide after exposure to aluminum (A-beta1-42 peptide [2]): at least partially restored
- Restore original spectra? (NF-M17): Yes
- equivalents at which the CD spectrum of NF-M17/aluminum is restored to (similar to) its original shape (NF-M17): around 32 equivalents

Compound: O[Si](O)(c1ccccc1)c1ccccc1 [DPSD, diphenylsilandiol]
- Restore original spectra? (NF-M17; CD spectrum of NF-M17 with 8 equivalents of aluminum, titration up to 32 equivalents): did not restore; also recorded: (DMSO interfered with spectra)

Compound: Cl [HCl, hydrochloric acid, reference compound]
- reversing the metal-induced helix-coil transition ([3]; acid, product of hydrolysis of chlorosilanes): itself effective for reversing the helix-coil transition
- Total Extracted (fmol) (A-beta antigen): no detectable antigen
- reversal of / protection from metal-induced loss of helix in TFE solutions (CD) (A-beta peptide fragment; polyvalent metal ions as perchlorate salts): can reverse the loss of helix

Compound: CCCCCC[Si](C)(Cl)Cl [HMDS, hexylmethyldichlorosilane]
- restoration of the original CD spectrum of the peptide after exposure to aluminum (A-beta1-42 peptide [2]): at least partially restored
- Restore original spectra? (NF-M17): Yes
- equivalents at which the CD spectrum of NF-M17/aluminum is restored to (similar to) its original shape (NF-M17): around 32 equivalents

Compound: C[Si](Cl)(Cl)c1ccccc1 [MPDS, methylphenyldichlorosilane]
- Restore original spectra? (NF-M17): Yes
- equivalents at which the CD spectrum of NF-M17/aluminum is restored to (similar to) its original shape (NF-M17): around 32 equivalents

Compound: CCCCCCCC[Si](Cl)(Cl)Cl [OTCS, n-octyltrichlorosilane]
- Restore original spectra? (NF-M17): did not restore; also recorded: (gelation of OTCS)

Compound: C1CC[Si]2(CCCCO2)OC1 [SDSU, 1,7-dioxa-6-sila-spiro[5.5]undecane]
- transport across the Caco-2 cells (Caco-2 cells [4]): significant amount of transport
- restoration of the original CD spectrum of the peptide after exposure to aluminum (A-beta1-42 peptide [2]): at least partially restored

Compound: CC(=O)O[Si](OC(C)=O)(OC(C)=O)OC(C)=O [TAS, tetraacetooxysilane]
- restoration of the original CD spectrum of the peptide after exposure to aluminum (A-beta1-42 peptide [2]; 8 to 12 equivalents of aluminum): at least partially restored

Compound: CC(C)(C)[Si](C)(C)O [TBDMS, tert-butyldimethylsilanol]
- Restore original spectra? (NF-M17): did not restore and No

Compound: CC[Si](O)(CC)CC [TES, triethylsilanol]
- restoration of the original CD spectrum of the peptide after exposure to aluminum (A-beta1-42 peptide [2]): at least partially restored
- Restore original spectra? (NF-M17): did not restore and No

Compound: [Zn] [Zinc]
- effect on the A-beta1-42 CD spectrum (disruption of the alpha helix) (A-beta1-42 peptide [5]): minor or no effects

Compound: C[Si](O)(O)CCCC#N [compound 3f, (dihydroxy)methyl(3-cyanopropyl)silane]
- recovery of the CD spectrum on titration of iron-complexed peptide 1 [3]: dosage effect is evident, but non-linear
- stability, solubility and effectiveness in reversing and/or preventing the effect of metal ion on helix formation [3]: efficient combination of stability, solubility, and effectiveness
- titration point showing the greatest degree of recovery [3]: 0.25 eq.

Compound: [Fe+2] [iron (II)]
- effect on the A-beta1-42 CD spectrum (disruption of the alpha helix) (A-beta1-42 peptide [5]): minor or no effects

Compound: CN(C)[Si](N(C)C)(N(C)C)N(C)C [tetrakis, tetrakis(dimethylamino)silane]
- restoration of the original CD spectrum of the peptide after exposure to aluminum (A-beta1-42 peptide [2]): at least partially restored

Compound: (dichloro)methylsilylbutyronitrile [DCMSBN]
- transport across Caco-2 cells, FIG. 29B compounds compared with FIG. 29A compounds (Caco-2 cells [4]): more transport
- transport across the Caco-2 cells (Caco-2 cells [4]): significant amount of transport
- restoration of the original CD spectrum of the peptide after exposure to aluminum (A-beta1-42 peptide [2]): at least partially restored
- Restore original spectra? (NF-M17): Yes
- equivalents at which the CD spectrum of NF-M17/aluminum is restored to (similar to) its original shape (NF-M17): around 32 equivalents

Compound: Trihydroxysilylmethyl phosphonate
- permeation across Caco-2 cells compared with mannitol (Caco-2 cells [1]): slower permeation

Compound: dichlorosilacyclobutane [DCSCB]
- transport across the Caco-2 cells (Caco-2 cells [4]): significant amount of transport
- restoration of the original CD spectrum of the peptide after exposure to aluminum (A-beta1-42 peptide [2]): at least partially restored

Compound: sodium metasilicate nonahydrate [reference compound]
- equivalents at which some return / beginning of return of the CD curve to its original shape is seen (NF-M17): about 32 equivalents

Compound: sodium orthosilicate [reference compound]
- restoration of the original CD spectrum of the peptide after exposure to aluminum (A-beta1-42 peptide [2]): at least partially restored
- equivalents at which some return / beginning of return of the CD curve to its original shape is seen (NF-M17): 4 equivalents
- equivalents at which the CD spectrum of NF-M17/aluminum is restored to (similar to) its original shape (NF-M17): around 16 equivalents

Compound: triethoxysilylbutyronitrile
- restoration of the original CD spectrum of the peptide after exposure to aluminum (A-beta1-42 peptide [2]): reverses aluminum-induced denaturation
- crossing of the epithelial barrier in the Caco-2 model (Caco-2 cells [1]): crossed the epithelial barrier efficiently
- permeation across Caco-2 cells compared with mannitol (Caco-2 cells [1]): at least four times greater

Compound: triethoxysilylbutyronitrile [TESB]
- Cell Permeation Coefficient (cm/sec) MDCK (MDCK cells): 2.7e-05 cm/s
- Total Permeation Coefficient (cm/sec) Mean ± SD, where applicable, MDCK (MDCK cells): 2.2 ± 1.4 × 10^−5 cm/sec
- cell permeation coefficient compared with mannitol, MDCK (MDCK cells): at least ten times greater
- crossing of the epithelial barrier in the MDCK model (MDCK cells): cross the epithelial barrier relatively efficiently
- permeation across MDCK cells compared with mannitol (MDCK cells): at least ten times greater
- transport across Caco-2 cells, FIG. 29B compounds compared with FIG. 29A compounds (Caco-2 cells [4]): more transport
- transport across the Caco-2 cells (Caco-2 cells [4]): significant amount of transport
- recovery of helicity in Al-denatured peptide / reversal of aluminum-induced denaturation (CD) (A-beta peptide fragment): appeared to reverse aluminum-induced denaturation
- restoration of the original CD spectrum of the peptide after exposure to aluminum (A-beta1-42 peptide [2]): at least partially restored
- Cell Permeation Coefficient (cm/sec) Caco-2 (Caco-2 cells [1]): 3.7e-05 cm/s
- Permeation Coefficient (cm/sec) Mean ± SD, where applicable (Caco-2 cells [1]): 3e-05 cm/s
- Total Permeation Coefficient (cm/sec) Mean ± SD, where applicable, Caco-2 (Caco-2 cells [1]): 2.8 ± 1.8 × 10^−5 cm/sec
- cell permeation coefficient compared with mannitol, Caco-2 (Caco-2 cells [1]): at least ten times greater
- crossing of the epithelial barrier in the Caco-2 model (Caco-2 cells [1]): cross the epithelial barrier relatively efficiently
- permeation across Caco-2 cells compared with mannitol (Caco-2 cells [1]): at least ten times greater

Compound: triethoxysilylpropionitrile [TESP]
- restoration of the original CD spectrum of the peptide after exposure to aluminum (A-beta1-42 peptide [2]): at least partially restored

Compound: trihydroxysilylmethyl phosphonate
- crossing of the epithelial barrier in the Caco-2 model (Caco-2 cells [1]): permeated less efficiently

Compound: trihydroxysilylmethyl phosphonate [TSMP]
- Cell Permeation Coefficient (cm/sec) MDCK (MDCK cells): 5.4e-07 cm/s
- Total Permeation Coefficient (cm/sec) Mean ± SD, where applicable, MDCK (MDCK cells): 5.2 ± 7.0 × 10^−7 cm/sec
- permeation across MDCK cells compared with mannitol (MDCK cells): slower permeation
- Cell Permeation Coefficient (cm/sec) Caco-2 (Caco-2 cells [1]): 2e-07 cm/s
- Permeation Coefficient (cm/sec) Mean ± SD, where applicable (Caco-2 cells [1]): 1.9 ± 1.5 × 10^−7 cm/sec
- Total Permeation Coefficient (cm/sec) Mean ± SD, where applicable, Caco-2 (Caco-2 cells [1]): 1.9 ± 1.5 × 10^−7 cm/sec
- permeation across Caco-2 cells compared with mannitol (Caco-2 cells [1]): slower permeation
